Broadly, the pEC50 is −log10 of the EC50, conventionally taken in molar units.

pEC50: −log10 of the molar value. Where a name gives a salt, the structure may show the parent alone.

Experiment [1] concerns Parathyroid Cell Calcium Receptor. The experiment is described as follows: EC50 in parathyroid cells or HEK 293/pHuPCaR4.0 cells loaded with fura-2. The format is cell-based, calves and humans. Conditions: parathyroid cells or HEK 293/pHuPCaR4.0, fura-2; cell type not given per value. As to the method: This section describes procedures used to obtain parathyroid cells from calves and humans, and to use the parathyroid cells to measure calcium receptor activity.
Human parathyroid glands, were obtained from patients undergoing surgical removal of parathyroid tissue for primary or uremic hyperparathyroidism (uremic HPT), and were treated similarly to bovine tissue.
Glands were trimmed of excess fat and connective tissue and then minced with fine scissors into cubes approximately 2-3 mm on a side. Dissociated parathyroid cells were prepared by collagenase digestion and then purified by centrifugation in Percoll buffer.
Primary culture also has the advantage that cells can be labeled with isotopes to near isotopic equilibrium, as is necessary for studies involving measurements of inositol phosphate metabolism.
ITS+ is a premixed solution containing insulin, transferrin, selenium, and bovine serum albumin (BSA)-linolenic acid (Collaborative Research, Bedford, Mass.). The cells were then transferred to plastic flasks (75 or 150 cm^2; Falcon) and incubated overnight at 37° C. in a humid atmosphere of 5% CO2. No serum is added to these overnight cultures, since its presence allows the cells to attach to the plastic, undergo proliferation, and dedifferentiate.
The cells were then pelleted, resuspended in the same buffer, but lacking the ester, and incubated a further 15 minutes at 37° C. The cells were subsequently washed twice with PCB containing 0.5 mM CaCl2 and 0.5% BSA and maintained at room temperature (about 20° C.). Immediately before use, the cells were diluted five-fold with prewarmed 0.5 mM CaCl2 -PCB to obtain a final BSA concentration of 0.1%. The concentration of cells in the cuvette used for fluorescence recording was 1-2×10^6 /ml.
The fluorescence of indicator-loaded cells was measured at 37° C. in a spectrofluorimeter (Biomedical Instrumentation Group, University of Pennsylvania, Philadelphia, Pa.) equipped with a thermostated cuvette holder and magnetic stirrer using excitation and emission wavelengths of 340 and 510 nm, respectively. […] To correct the calibration for dye leakage, cells were placed in the cuvette and stirred at 37° C. for 2-3 minutes. The cell suspension was then removed, the cells pelleted, and the supernatant returned to a clean cuvette. […] This estimate was subtracted from the apparent Fmin.
HEK 293 cells transfected with pHuPCaR4.0 were loaded with fura-2 by incubating the cells in Dulbecco's modified Eagle's media buffered with 20 mM HEPES containing about 5 μM […] for one hour at room temperature. Cell were then rinsed with Hank's balanced salt solution buffered with 20 mM HEPES containing 1 mM CaCl2 and 1 mM MgCl2. Compounds to be tested were then added to the cells and fluorescence was measured (excitation and emission wavelengths of 340 and 510 nm, respectively).

For a further experiment, the target named is T1, human calcium receptor (Homo sapiens, UniProt P41180, R990G).
T1 construct: expressed in transfected cells; host or cells: HEK 293
T1 sequence (P41180 20-1078 R990G): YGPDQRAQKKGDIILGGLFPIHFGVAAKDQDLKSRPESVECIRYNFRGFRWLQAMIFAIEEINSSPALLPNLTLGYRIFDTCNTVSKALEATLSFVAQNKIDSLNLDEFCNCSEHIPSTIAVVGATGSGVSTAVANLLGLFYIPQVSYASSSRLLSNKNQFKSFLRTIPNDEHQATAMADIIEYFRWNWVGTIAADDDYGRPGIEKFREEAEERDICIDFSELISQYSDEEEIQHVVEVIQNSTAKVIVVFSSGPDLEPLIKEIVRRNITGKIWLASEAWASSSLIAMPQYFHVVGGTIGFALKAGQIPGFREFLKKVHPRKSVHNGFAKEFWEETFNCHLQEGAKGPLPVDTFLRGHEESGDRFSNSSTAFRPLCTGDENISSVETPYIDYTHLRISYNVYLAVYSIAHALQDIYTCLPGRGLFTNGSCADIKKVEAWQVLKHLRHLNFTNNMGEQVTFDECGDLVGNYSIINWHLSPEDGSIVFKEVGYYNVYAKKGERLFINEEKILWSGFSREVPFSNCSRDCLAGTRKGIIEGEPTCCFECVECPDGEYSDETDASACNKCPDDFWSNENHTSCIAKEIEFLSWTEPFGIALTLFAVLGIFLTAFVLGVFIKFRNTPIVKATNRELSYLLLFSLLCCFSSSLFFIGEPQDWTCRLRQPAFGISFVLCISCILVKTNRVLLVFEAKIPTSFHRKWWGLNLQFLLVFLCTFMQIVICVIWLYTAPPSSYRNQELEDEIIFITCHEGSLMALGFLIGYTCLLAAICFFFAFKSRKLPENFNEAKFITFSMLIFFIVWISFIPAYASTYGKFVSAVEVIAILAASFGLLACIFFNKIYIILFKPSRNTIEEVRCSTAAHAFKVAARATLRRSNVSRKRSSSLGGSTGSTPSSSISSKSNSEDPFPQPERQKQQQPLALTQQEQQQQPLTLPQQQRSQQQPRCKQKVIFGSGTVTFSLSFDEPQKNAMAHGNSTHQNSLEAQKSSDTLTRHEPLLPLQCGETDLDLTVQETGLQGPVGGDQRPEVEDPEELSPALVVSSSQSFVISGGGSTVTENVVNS
The experiment is described as follows: increases in [Ca^2+ ]i in HEK-293 cells expressing the human calcium receptor (fura-2 loaded HEK 293/pHuPCaR4.0 cells), % activity. The format is cell-based.

Turning to `C[C@H](CCc1cccc(C(F)(F)F)c1)N[C@H](C)c1cccc2ccccc12` [Compound 25D, (R,R)-N-[4-(3-trifluoromethylphenyl)-2-butyl]-1-(1-naphthyl)ethylamine], in experiment [1], the pEC50 was 7.72.
Turning to `C[C@@H](NCc1ccc2c(c1)OCCO2)c1cccc2ccccc12` [Compound 13X], the “% activity” value on human calcium receptor (33 ng/mL) worked out at 65%; at human calcium receptor (330 ng/mL), 102%. Moreover, the pEC50 in experiment [1] is over 6.12.
In the case of `COc1ccc(CN[C@H](C)c2cccc3ccccc23)cc1C` [Compound 16Q], the “% activity” value is listed as 88% at human calcium receptor (33 ng/mL) and 110% on human calcium receptor (330 ng/mL). In experiment [1], the pEC50 was 7.40.
For `C[C@@H](CCc1ccccc1)N[C@H](C)c1cccc2ccccc12` [Compound 21G], in that order: 63%, 88% and 5.96.
Consider `Cc1ccc(CN[C@H](C)c2cccc3ccccc23)cc1C` [Compound 16V], for which the “% activity” value on human calcium receptor (33 ng/mL) was determined as 102%; at human calcium receptor (330 ng/mL) it was 114%. In experiment [1], the pEC50 is over 6.89.
With `CC(N[C@H](C)c1ccccc1)c1ccc2ccccc2c1` (stereo partly drawn) [Compound 4H, N-[1-(2-naphthyl)ethyl]-1-phenylethylamine], the “% activity” value on human calcium receptor (33 ng/mL) is reported as 37%; at human calcium receptor (330 ng/mL), 77%. Further, in experiment [1], the pEC50 is at most 5.52.
With `C[C@H](CCc1cccc(C(F)(F)F)c1)N[C@@H](C)c1cccc2ccccc12` [Compound 25C, (S,R)-N-[4-(3-trifluoromethylphenyl)-2-butyl]-1-(1-naphthyl)ethylamine], the pEC50 in experiment [1] was under 5.70.
Turning to `C[C@@H](NCc1ccc2ccccc2c1)c1cccc2ccccc12` [Compound 9C], the “% activity” value on human calcium receptor (33 ng/mL) is 82%; at human calcium receptor (330 ng/mL) it was 104%. For the same compound, in experiment [1], the pEC50 was 6.22.
For `CCCOc1ccc(CN[C@H](C)c2cccc3ccccc23)cc1` [Compound 13Q], in that order: 46%, 95% and about 6.10.
For `CC(C)C(N[C@H](C)c1cccc2ccccc12)c1ccc2ccccc2c1` (stereo partly drawn) [Compound 10F], the “% activity” value is listed as 84% on human calcium receptor (33 ng/mL) and 96% on human calcium receptor (330 ng/mL). The pEC50 in experiment [1] was 6.05.
Take `COc1cccc([C@@H](C)NC2CCN(Cc3ccccc3)CC2)c1` [Compound 20F]: the pEC50 in experiment [1] was over 6.00.
`COc1ccc(CCCN[C@H](C)c2cccc(OC)c2)cc1` [Compound 20I]: the “% activity” value on human calcium receptor (33 ng/mL) is 52%; on human calcium receptor (330 ng/mL), 87%. In addition, the pEC50 in experiment [1] is under 6.00.
In the case of `COc1ccc([C@@H](C)N[C@H](C)c2cccc3ccccc23)cc1Cl` [Compound 17X, (R,R)-N-(1-Ethyl-4'-methoxy-3'-chlorophenyl)-1-(1-naphthylethyl) amine], the results for the “% activity” value at human calcium receptor (33 ng/mL) and at human calcium receptor (330 ng/mL) were 93% and 105%, respectively. For the same compound, the pEC50 in experiment [1] is 7.70.
With `COc1ccc([C@@H](C)N[C@H](C)c2cccc3ccccc23)cc1C.Cl` [Compound 17P, (R)-N-(1-(4-Methoxy-3-methylphenyl)ethyl)-(R)-1-(1-naphthyl)ethylamine hydrochloride], the “% activity” value on human calcium receptor (33 ng/mL) worked out at 86%; at human calcium receptor (330 ng/mL), 101%. Besides, the pEC50 in experiment [1] is 7.40.
Take `C[C@@H](NCCCc1ccccc1Cl)c1cccc2ccccc12` [Compound 12Z, N-3-(2-chlorophenyl)-1-propyl-(R)-1-(1-naphthyl) ethylamine hydrochloride]: the pEC50 in experiment [1] was 6.96.
Consider `COc1cccc(C(C)NC(C)c2cccc3ccccc23)c1` (stereo not drawn) [Compound 14Y], for which the “% activity” value on human calcium receptor (33 ng/mL) was 73%; at human calcium receptor (330 ng/mL), 109%. In addition, the pEC50 in experiment [1] is 6.42.
Take `COc1ccc(CN[C@H](C)c2cccc3ccccc23)cc1F` [Compound 16T]: the results for the “% activity” value on human calcium receptor (33 ng/mL) and at human calcium receptor (330 ng/mL) were 88% and 97%, respectively. Moreover, the pEC50 in experiment [1] was 7.40.
In the same order, the values of `C[C@@H](NCc1ccc(C(F)(F)F)cc1)c1cccc2ccccc12` [Compound 13S] are 87%, 102% and over 6.89.
Turning to `COc1cccc([C@@H](C)NCCCc2ccc(OC)c(OC)c2)c1` [Compound 20J], the “% activity” value on human calcium receptor (33 ng/mL) is reported as 48%; at human calcium receptor (330 ng/mL), 80%. Moreover, the pEC50 in experiment [1] was under 5.52.
Turning to `CSc1ccc(CN[C@H](C)c2cccc3ccccc23)cc1` [Compound 16X], the “% activity” value on human calcium receptor (33 ng/mL) was 96%; on human calcium receptor (330 ng/mL), 111%. Moreover, the pEC50 in experiment [1] was 7.00.
For the compound `CCC(CCc1ccccc1)NC(C)c1cccc(OC)c1` (stereo not drawn) [Compound 20S], the pEC50 in experiment [1] was 5.38.
Take `C[C@H](CCc1ccccc1)N[C@H](C)c1cccc2ccccc12` [Compound 21F, (R,R)-N-(4-phenyl-2-butyl)-1-(1-naphthyl)etbylamine]: the “% activity” value came to 85% on human calcium receptor (33 ng/mL) and 109% at human calcium receptor (330 ng/mL). Besides, in experiment [1], the pEC50 was 6.42.
On to `COc1ccc([C@H](C)N[C@H](C)c2cccc3ccccc23)cc1` [Compound 14V], for which the pEC50 in experiment [1] is 5.77.
On to `C[C@@H](NCc1ccc(C(C)(C)C)cc1)c1cccc2ccccc12` [Compound 15G], for which the “% activity” value was 80% at human calcium receptor (33 ng/mL) and 113% on human calcium receptor (330 ng/mL). Moreover, the pEC50 in experiment [1] is about 6.30.
In the same order, the values of `COc1cccc([C@@H](C)N[C@H](C)CCc2ccccc2)c1` [Compound 21D, (R,R)-N-(4-phenyl-2-butyl)-1-(3-methoxyphenyl)ethylamine] are 75%, 104% and 5.52.
As for `COc1cccc([C@@H](C)NCCCc2cccc(F)c2)c1` [Compound 4N], the “% activity” value is listed as 65% at human calcium receptor (33 ng/mL) and 100% at human calcium receptor (330 ng/mL). Also, the pEC50 in experiment [1] was 6.10.

Source of the values: patent US6211244A, “Calcium receptor-active compounds” (priority 1995, dated 2001).
